Laboratory results from US11999676B2, “Vesicular monoamine transporter-2 ligands and their use in the treatment of psychostimulant abuse” (priority 2016, dated 2024).
Read-outs that look alike come from different tables or passages of the source.

Tests used:
[1] = target: serotonin transporter (SERT) (Rattus norvegicus (Rat), UniProt P31652); test: [3H]5-HT uptake assay, synaptosomal preparation; assay type: biochemical
Description: (§1) [^3H]DA and [^3H]5-HT uptake into striatal synaptosomes was determined to evaluate compound inhibition of the dopamine transporter (DAT) and the serotonin transporter (SERT), respectively.

rats = test: METH-stimulated locomotor activity in rats; assay type: in vivo, rat; details: s.c.
VMAT2 [2] = target: T1, VMAT2 (Rattus norvegicus (Rat), UniProt Q01827); test: [3H]Dopamine ([3H]DA) uptake assay, vesicular preparation; assay type: biochemical
[3] = target: hERG channel (selectivity at VMAT2 over hERG) (Homo sapiens (Human), UniProt Q12809); test: [3H]Dofetilide binding assay, HEK-293 cell membrane preparation; details: human, pH 7.4
Sequence of hERG channel (selectivity at VMAT2 over hERG) (Q12809 whole entry): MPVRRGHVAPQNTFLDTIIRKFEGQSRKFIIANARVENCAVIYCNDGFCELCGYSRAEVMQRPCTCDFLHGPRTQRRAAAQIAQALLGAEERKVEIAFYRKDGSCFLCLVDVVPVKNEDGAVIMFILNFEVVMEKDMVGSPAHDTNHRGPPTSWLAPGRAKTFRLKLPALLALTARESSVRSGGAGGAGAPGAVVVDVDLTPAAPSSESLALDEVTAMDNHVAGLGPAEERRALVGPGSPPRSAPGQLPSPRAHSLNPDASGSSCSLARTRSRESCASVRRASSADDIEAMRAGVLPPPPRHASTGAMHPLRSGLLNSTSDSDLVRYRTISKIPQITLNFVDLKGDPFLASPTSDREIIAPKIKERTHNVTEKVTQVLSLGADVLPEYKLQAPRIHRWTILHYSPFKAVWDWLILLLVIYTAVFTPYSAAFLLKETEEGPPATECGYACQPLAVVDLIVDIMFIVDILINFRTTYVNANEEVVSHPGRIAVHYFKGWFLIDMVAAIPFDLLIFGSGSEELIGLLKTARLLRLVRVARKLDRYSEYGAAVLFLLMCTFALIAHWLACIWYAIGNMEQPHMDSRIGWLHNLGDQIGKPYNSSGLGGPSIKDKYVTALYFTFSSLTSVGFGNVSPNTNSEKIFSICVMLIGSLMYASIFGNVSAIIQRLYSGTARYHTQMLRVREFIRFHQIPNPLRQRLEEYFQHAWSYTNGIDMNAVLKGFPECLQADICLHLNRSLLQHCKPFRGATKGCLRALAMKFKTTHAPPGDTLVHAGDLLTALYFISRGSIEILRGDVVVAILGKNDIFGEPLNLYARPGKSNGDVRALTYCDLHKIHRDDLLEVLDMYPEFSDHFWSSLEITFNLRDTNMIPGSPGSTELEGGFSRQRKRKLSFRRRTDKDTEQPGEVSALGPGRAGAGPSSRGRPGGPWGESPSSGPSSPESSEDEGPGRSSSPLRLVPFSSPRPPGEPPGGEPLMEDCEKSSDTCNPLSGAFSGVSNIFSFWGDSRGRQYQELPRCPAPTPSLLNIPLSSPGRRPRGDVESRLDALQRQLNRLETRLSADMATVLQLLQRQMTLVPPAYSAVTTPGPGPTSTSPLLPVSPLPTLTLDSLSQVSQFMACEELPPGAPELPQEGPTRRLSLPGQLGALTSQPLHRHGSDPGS

[4] = target: dopamine transporter (DAT) (Rattus norvegicus (Rat), UniProt P23977); test: [3H]DA uptake assay, synaptosomal preparation; assay type: biochemical
Description: as §1

hERG channel = hERG channel (Homo sapiens (Human), UniProt Q12809); test: [3H]Dofetilide binding assay, HEK-293 cell membrane preparation
Sequence of hERG channel (Q12809 whole entry): as above

in vitro [5] = details: both, human, microsomes, pH 7.4, Microsomal stability assays: Clearance
[6] = Microsomal stability assay, human liver microsomes; details: for half-life at 0.08 µM: both, human, pH 7.4, Microsomal stability assays: Half-life
[7] = Microsomal stability assay, rat liver microsomes; details: female, Sprague-Dawley, rat, pH 7.4, Microsomal stability assays: Half-life
Description: (§2) Each plate holds triplicate samples of two controls (0.4 mM) and up to 14 compounds (0.08 mM) in rat and human liver microsomes. Aliquots of each well of the plate (175 μl of each well) were transferred from the master plate into 5 assay plates. For 0-hr time point, pre-cooled (4° C.) internal standard (437.5 μL, 2 μM caffeine in methanol) was added to the first plate before the reaction starts. NADPH regenerating system solution A (6.05 ml, Fisher Scientific, #NC9255727) was combined with NADPH regenerating system solution B (1.21 ml, Fisher Scientific, #NC9016235) in potassium phosphate buffer (15.8 ml, 0.1 M, pH 7.4, 37° C.). The resulting NADPH solution (43.8 μl) was added to each well of all the 96-well assay plates and mixed with pipette briefly making the final protein and compound concentrations respectively: 0.5 mg/ml, 0.08 μM (0.4 μM for controls). Plates were sealed, and all plates except the 0-hr plate were incubated at 37° C., shaken at a speed of 60 rpm. A single assay plate was tested at each time point: 0.5 hr, 1 hr, 2 hr, and 4 hr. At each time point, 437.5 μL of pre-cooled internal standard was added each well of the plate to quench the reaction. […] 120 μl supernatant was transferred to a 96-well plate, centrifuged again and analyzed by UPLC-MS (Waters Inc., Milford, MA). The compounds and internal standard were detected by selected ion recording (SIR).
(§3) The amount of material was measured as a ratio of peak area to the internal standard and graphed. Using the slope from the initial linear portion of this curve, the degradation rate constant is calculated using equation [1].

in vitro [8] = details: female, Sprague-Dawley, rat, microsomes, pH 7.4, Microsomal stability assays: Clearance
Description: as §2, §3

[9] = in vivo; cited from earlier work
rat striatal slices = details: cited from earlier work
VMAT2 [10] = target: T1, VMAT2; details: rat brain vesicles; read-out: inhibition of [3H]DA uptake into rat brain vesicles via VMAT2 (Ki); cited from earlier work
[11] = [3H]DA uptake (Ki) VMAT2, rat striatal synaptic vesicles
[12] = [3H]DA uptake, rat, read-out: VMAT2 (rat) Inhibition: Mean Ki ± Standard Deviation
[13] = [3H]dofetilide, HEK-293 cell membranes, read-out: hERG Binding: Mean Ki ± Standard Deviation

Row | SMILES | Ki (VMAT2 [2]; [12]) [µM] | CLint scaled at 0.08 µM (in vitro [5]) [L/h/kg] | half-life at 0.08 µM ([7]; liver microsomes) [min] | CLint scaled at 0.08 µM (in vitro [8]) [L/h/kg] | further results
1 | COc1ccc(CCCN[C@H](C)Cc2ccccc2)cc1.Cl [Compound 9] |  |  |  |  | selectivity at VMAT2 over SERT [1]: > 30 fold; METH-stimulated locomotor activity (rats; 3 mg/kg): significant reduction; Ki (VMAT2 [2]; Ki value at VMAT2, text value): 0.00871 ± 0.00365 µM; Ki (VMAT2 [2]; [11]): 0.0087 ± 0.0065 µM; selectivity ratio at 1 hr [3]: > 30; selectivity at VMAT2 over DAT [4]: > 30 fold
2 | COc1ccc(CCCN[C@@H](C)Cc2ccccc2)cc1.Cl [Compound 10] |  |  |  |  | selectivity at VMAT2 over SERT [1]: > 30 fold; METH-stimulated locomotor activity (rats; 17 mg/kg): significant reduction; Ki (VMAT2 [2]; Ki value at VMAT2, text value): 0.0255 ± 0.00357 µM; Ki (VMAT2 [2]; [11]): 0.026 ± 0.0036 µM; selectivity ratio at 1 hr [3]: > 30; selectivity at VMAT2 over DAT [4]: > 30 fold
3 | FCC(Cc1ccc(-c2cncnc2)cc1)NCCCc1ccc(F)cc1 (centres unmarked) [Compound 68] | 0.00553 ± 0.000567 | > 24 |  |  | Ki (hERG channel; [13]): 0.633 ± 0.0463 µM; half-life at 0.08 µM ([6]; pooled liver microsomes): < 6 min
4 | FCC(Cc1ccc(-c2cncnc2)cc1)NCCCc1ccc(F)cc1 (centres unmarked) [Compound 69] |  |  | 36 | 4.61 | 
5 | O=CNc1ccc(CC(CF)NCCCc2ccc(F)cc2)cc1 (centres unmarked) [Compound 72] | 0.0164 ± 0.00289 | 1.59 |  |  | Ki (hERG channel; [13]): 0.516 ± 0.0636 µM; half-life at 0.08 µM ([6]; pooled liver microsomes): 48 min
6 | O=CNc1ccc(CC(CF)NCCCc2ccc(F)cc2)cc1 (centres unmarked) [Compound 73] |  |  | 66 | 2.62 | 
7 | CC(Cc1ccc(NC=O)cc1)N(C=O)CCCc1ccccc1 (centres unmarked) [Compound 75] | 22.7 ± 0.432 | 7.26 |  |  | half-life at 0.08 µM ([6]; pooled liver microsomes): 12 min
8 | CC(Cc1ccc(NC=O)cc1)N(C=O)CCCc1ccccc1 (centres unmarked) [Compound 76] |  |  | 48 | 3.36 | 
9 | Nc1ccc(CC(CF)NCCCc2ccc(F)cc2)cc1 (centres unmarked) [Compound 79, [N-3-(4-fluorophenyl)-propan-1-yl]-3-(4-aminophenyl)-1-fluoro-2-propylamine] | 0.0198 ± 0.00929 |  | 132 | 1.27 | Ki (hERG channel; [13]): 3.44 ± 0.983 µM
10 | Fc1ccc(CCCNC(Cc2ccc(F)cc2)C(F)F)cc1 (centres unmarked) [Compound 81] | 0.386 ± 0.194 |  | 36 | 4.99 | 
11 | FCC(Cc1ccc(-c2cccnc2)cc1)NCCCc1ccc(F)cc1 (centres unmarked) [Compound 83] | 0.0277 ± 0.0139 |  | 24 | 6.78 | Ki (hERG channel; [13]): 6.75 ± 3.62 µM
12 | O=[N+]([O-])c1ccc(CCCNC(CF)Cc2ccc(F)cc2)cc1 (centres unmarked) [Compound 123] |  | 1.09 |  |  | Ki (hERG channel): 0.223 ± 0.199 µM; half-life at 0.08 µM ([6]; pooled human liver microsomes): 72 min
13 | O=[N+]([O-])c1ccc(CCCNC(CF)Cc2ccc(F)cc2)cc1 (centres unmarked) [Compound 124] |  |  |  | 6.96 | half-life at 0.08 µM ([7]; rat liver microsomes): 24 min
14 | OCC(Cc1ccc(F)cc1)NCCCc1ccncc1 (centres unmarked) [Compound 129] |  | < 0.312 |  |  | half-life at 0.08 µM ([6]; pooled liver microsomes): > 240 min
15 | OCC(Cc1ccc(F)cc1)NCCCn1cccn1 (centres unmarked) [Compound 130] | 0.634 ± 0.195 | 2.24 |  |  | half-life at 0.08 µM ([6]; pooled liver microsomes): 36 min
16 | OCC(Cc1ccc(F)cc1)NCCCn1cccn1 (centres unmarked) [Compound 131] |  |  | 18 | 8.34 | 
17 | FCC(Cc1ccc(F)cc1)NCCCc1ccncc1 (centres unmarked) [Compound 142] | 0.117 ± 0.0187 |  | 30 | 2.3 | 
18 | FCC(Cc1ccc(F)cc1)NCCCc1ccncc1 (centres unmarked) [Compound 143] |  | 5.89 |  |  | half-life at 0.08 µM ([6]; pooled liver microsomes): 30 min
19 | FCC(Cc1ccc(F)cc1)NCCCc1ccnc2ccccc12 (centres unmarked) [Compound 148] | 0.0703 ± 0.013 |  | < 6 | > 24 | Ki (hERG channel; [13]): 4.7 ± 0.373 µM
20 | FCC(Cc1ccc(F)cc1)NCCCc1ccnc2ccccc12 (centres unmarked) [Compound 149] |  | 9.72 |  |  | Microsomal stability assays: Half-life [6]: 6 min
21 | OCC(Cc1ccc(F)cc1)NCCCc1ccc(Br)cc1 (centres unmarked) [Compound 154] | 0.0691 ± 0.0136 | < 0.312 |  |  | half-life at 0.08 µM ([6]; pooled liver microsomes): > 240 min
22 | OCC(Cc1ccc(F)cc1)NCCCc1ccc(Br)cc1 (centres unmarked) [Compound 155] |  |  | < 6 | > 27 | 
23 | CN1[C@@H](CCc2ccccc2)CCC[C@H]1CCc1ccccc1 [Lobelane] |  |  |  |  | METH self-administration [9]: decreases; METH-evoked DA overflow (rat striatal slices): decreases
24 | c1ccc(CC[C@H]2CCC[C@@H](CCc3ccccc3)N2)cc1 [Nor-Lobelane] |  |  |  |  | Ki (VMAT2 [10]): 0.044 µM
